In PubChem BioAssay (NCI):
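48-hour exposure; five concentrations; linearly interpolated endpoints. GI50 = concentration required for 50% inhibition of growth. Definition used: TGI = concentration required for complete inhibition of growth.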 Where a SMILES comes first, the peptide text is derived from it. [ ]: non-standard residue; d: D form. pGlu = O=C1CC[CH](C(=O)O)N1; Thz = O=C(O)[CH]1CSCN1

Tests used:
Experiment in all cases: growth of human tumour cells (NCI), 48 h
CCRF-CEM leukemia = tested on: CCRF-CEM leukemia
COLO 205 colon = tested on: COLO 205 colon
SF-268 CNS = tested on: SF-268 CNS
SNB-75 CNS = tested on: SNB-75 CNS
SK-MEL-2 melanoma = tested on: SK-MEL-2 melanoma
SF-295 CNS = tested on: SF-295 CNS
HCC-2998 colon = tested on: HCC-2998 colon
HL-60(TB) leukemia = tested on: HL-60(TB) leukemia
NCI-H23 lung = tested on: NCI-H23 lung
NCI-H522 lung = tested on: NCI-H522 lung
LOX IMVI melanoma = tested on: LOX IMVI melanoma

| SMILES | TGI (CCRF-CEM leukemia) | TGI (COLO 205 colon) | TGI (SF-268 CNS) | TGI (SNB-75 CNS) | TGI (SK-MEL-2 melanoma) | TGI (SF-295 CNS) | TGI (HCC-2998 colon) | TGI (HL-60(TB) leukemia) | TGI (NCI-H23 lung) | TGI (NCI-H522 lung) | TGI (LOX IMVI melanoma) | GI50 (NCI-H23 lung) | GI50 (COLO 205 colon) | GI50 (SF-268 CNS) | GI50 (SK-MEL-2 melanoma) | GI50 (SF-295 CNS) | GI50 (NCI-H522 lung) | GI50 (HCC-2998 colon) | GI50 (HL-60(TB) leukemia) |
| --- | --- | --- | --- | --- | --- | --- | --- | --- | --- | --- | --- | --- | --- | --- | --- | --- | --- | --- | --- |
| COc1ccc(C(=O)/C=C/c2ccc(OCCCCCCCCCCOc3ccc(/C=C/C(=O)c4ccc(OC)cc4)cc3)cc2)cc1 | > 100 µM | > 100 µM | > 100 µM | > 100 µM | > 100 µM | > 100 µM | > 100 µM | > 100 µM |  |  |  |  |  |  |  |  |  |  |  |
| S=C(NCc1ccccc1)Nc1sc(=NCc2ccccc2)nc2sc3c(c12)CCN(N1CCc2c(sc4nc(=NCc5ccccc5)sc(NC(=S)NCc5ccccc5)c24)C1)C3 | > 70.2 µM | > 100 µM | > 100 µM | > 64.9 µM | > 81.8 µM | > 100 µM | > 62 µM | 42.4 µM | > 83.4 µM | > 100 µM | > 100 µM |  |  |  |  |  |  |  |  |
| O=[N+]([O-])c1ccc(-c2csc(N=Nc3c(O)[nH]c4ccccc34)n2)cc1 |  | > 100 µM |  | > 100 µM | 84.2 µM | > 100 µM | 50.5 µM |  | > 100 µM |  | > 100 µM |  |  |  |  |  |  |  |  |
| O=c1[nH]c(NCc2cccnc2)nc2nc[nH]c12 | > 100 µM | > 100 µM | > 100 µM | > 100 µM | > 100 µM | > 100 µM | > 100 µM |  | > 100 µM | > 100 µM | > 100 µM |  |  |  |  |  |  |  |  |
| C=C1C(C(=O)OC)[C@H]1C(=O)OC (some centres undefined) |  | > 100 µM | > 100 µM | > 100 µM | > 100 µM | > 100 µM | > 100 µM | > 100 µM | > 100 µM | > 100 µM | > 100 µM |  |  |  |  |  |  |  |  |
| COC(=O)C1=C(C)NC(=O)N2[C@@H](CCOCc3ccccc3)CC[C@@H]12 | > 50 µM | > 50 µM | > 50 µM | > 50 µM | > 50 µM | > 50 µM | > 50 µM | > 50 µM | > 50 µM | > 50 µM | > 50 µM |  |  |  |  |  |  |  |  |
| CC(=O)Nc1nc(C)c(S(=O)(=O)NC(=O)NC2NC(=O)NC2=O)s1 (centres undefined) | > 100 µM | > 100 µM | > 100 µM | > 100 µM | > 100 µM | > 100 µM | > 100 µM | > 100 µM | > 100 µM | > 100 µM | > 100 µM |  |  |  |  |  |  |  |  |
| O=C(Cc1ccc2ccccc2c1)NCc1ccc(C(=O)NCCc2ccccc2)cc1 | > 100 µM | > 100 µM | > 100 µM | > 100 µM | > 100 µM | > 100 µM | > 100 µM |  | > 100 µM | > 100 µM | > 100 µM |  |  |  |  |  |  |  |  |
| C=C1C2CCC3C4(C)CCCC(C)(C(=O)O)C4CCC3(C2)C1OC(=O)/C(C)=C/C (centres undefined) | > 100 µM | 82.1 µM | > 100 µM | > 100 µM | > 100 µM | 44.2 µM | 69.5 µM | 56.7 µM | > 100 µM | > 100 µM | > 100 µM |  |  |  |  |  |  |  |  |
| Cc1nc2c(c(N3CCN(C)CC3)n1)Cc1ccccc1-2 | > 100 µM | > 100 µM | > 100 µM | > 100 µM | > 100 µM | > 100 µM |  | > 100 µM | > 100 µM | 56.4 µM |  |  |  |  |  |  |  |  |  |
| O=C1CCC(C(=O)N2CSCC2C(=O)O)N1 (centres undefined) ([pGlu]-[Thz]-OH; configuration not given here) | > 100 µM |  | > 100 µM | > 100 µM | > 100 µM | > 100 µM | > 100 µM | > 100 µM | > 100 µM | > 100 µM | > 100 µM |  |  |  |  |  |  |  |  |
| O=c1onc2n1-c1ccc(Cl)cc1C(=S)N1CSCC21 (centres undefined) | > 100 µM | 35.1 µM | 69.7 µM | 91.9 µM | 69.6 µM | 41.9 µM | 35.4 µM |  |  | 62.9 µM | > 100 µM |  |  |  |  |  |  |  |  |
| NC(=S)N1N=C2CCCCCC[C@@H]2[C@H]1c1ccccc1 | > 100 µM | > 100 µM | > 100 µM | > 100 µM | > 100 µM | > 100 µM | > 100 µM | 51.7 µM | > 100 µM | 82.9 µM | > 100 µM |  |  |  |  |  |  |  |  |
| O=[N+]([O-])c1nccn1CC(O)c1ccccc1 (centres undefined) | > 100 µM | > 100 µM | > 100 µM | > 100 µM | > 100 µM | > 100 µM |  | > 100 µM | > 100 µM | > 100 µM | > 100 µM |  |  |  |  |  |  |  |  |
| Cc1ccc2nc3ccccc3c(C3C4C(=O)N(c5ccc(F)cc5)C(=O)C4ON3C(C(N)=O)c3ccccc3)c2c1 (centres undefined) | > 100 µM | 35.7 µM | > 100 µM | > 100 µM | > 100 µM | > 100 µM |  | > 100 µM | > 100 µM | 57.8 µM | > 100 µM |  |  |  |  |  |  |  |  |
| COc1ccc(S(=O)(=O)Nc2ccc(-c3csc(N4C(=O)/C(=C/c5ccccc5[N+](=O)[O-])N=C4c4ccccc4)n3)cc2)cc1Cl |  | > 100 µM | > 100 µM | > 100 µM | > 100 µM | > 100 µM | 63.5 µM | > 100 µM | 76.8 µM | > 100 µM | > 100 µM |  |  |  |  |  |  |  |  |
| O=c1[nH]c(Nc2ccc(Br)c(C(F)(F)F)c2)nc2nc[nH]c12 | > 100 µM | 41 µM | > 100 µM | > 100 µM | 44.4 µM | > 100 µM | 40.5 µM | > 100 µM | > 100 µM | 63.5 µM | > 100 µM |  |  |  |  |  |  |  |  |
| Cn1c(-c2ccco2)ccc1-c1ccc(C=O)o1 | > 100 µM | > 100 µM |  | > 100 µM | > 100 µM | > 100 µM | > 100 µM | 52.2 µM | > 100 µM | > 100 µM | > 100 µM |  |  |  |  |  |  |  |  |
| FC1(F)ON2CCc3ccccc3C2[C@H]1c1ccccc1 (some centres undefined) | > 100 µM | > 100 µM | > 100 µM | 70.8 µM | > 100 µM | > 100 µM | > 100 µM | > 100 µM | > 100 µM | > 100 µM | > 100 µM | > 100 µM | > 100 µM | > 100 µM | > 100 µM | > 100 µM | > 100 µM | > 100 µM | > 100 µM |
| Cc1nc(-c2ccccc2)cn2c1nc1ccccc12 | > 100 µM | > 100 µM | > 66.8 µM | > 52.2 µM | 43.5 µM | > 65.8 µM | > 100 µM | > 100 µM | > 77.7 µM | > 66.8 µM | > 31.6 µM |  |  |  |  |  |  |  |  |
